Measured values as given in article PMC12409578 (ACS Omega, 2025).
“Also recorded” adds a separate entry of the source.

Assays:
AChE (from electric eel) = molecular target: T1, AChE (from electric eel) (Electrophorus electricus, UniProt O42275); assay: biochemical; assay type: biochemical; details: for Ki: Lineweaver–Burk plots, mean ± SEM, read-out: AChE K I; for IC50: electric eel AChE, ATChI substrate, 37 °C, pH 8.0; for selectivity for AChE than for BChE (in words): from K I values / selectivity index
T1 construct: AChE (from electric eel); from tissue
T1 sequence (O42275 24-633): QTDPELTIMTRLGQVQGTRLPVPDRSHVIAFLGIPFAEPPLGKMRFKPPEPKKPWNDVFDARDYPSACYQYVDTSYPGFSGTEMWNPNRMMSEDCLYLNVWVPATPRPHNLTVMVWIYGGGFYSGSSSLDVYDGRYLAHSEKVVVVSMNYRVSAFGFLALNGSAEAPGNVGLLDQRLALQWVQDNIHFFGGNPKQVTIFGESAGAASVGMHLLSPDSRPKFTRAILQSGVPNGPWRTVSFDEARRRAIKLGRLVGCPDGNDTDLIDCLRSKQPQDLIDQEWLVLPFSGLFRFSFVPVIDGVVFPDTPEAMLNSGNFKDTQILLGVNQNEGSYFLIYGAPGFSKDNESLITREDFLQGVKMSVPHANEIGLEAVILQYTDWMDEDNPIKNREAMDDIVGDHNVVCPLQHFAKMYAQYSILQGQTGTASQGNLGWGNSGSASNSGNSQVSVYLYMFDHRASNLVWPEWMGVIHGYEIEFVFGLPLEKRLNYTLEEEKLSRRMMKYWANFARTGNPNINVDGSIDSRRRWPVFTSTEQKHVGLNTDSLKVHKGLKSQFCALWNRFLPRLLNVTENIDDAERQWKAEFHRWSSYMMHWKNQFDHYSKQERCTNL

BChE (from equine serum) = molecular target: T2, BChE (from equine serum) (Equus caballus, UniProt P81908); assay: biochemical; details: for Ki: Lineweaver–Burk plots, mean ± SEM, read-out: BChE K I; for IC50: equine serum BChE, BChI substrate, 37 °C, pH 8.0
T2 construct: BChE (from equine serum); from tissue; host or cells: equine serum
T2 sequence (P81908 whole entry): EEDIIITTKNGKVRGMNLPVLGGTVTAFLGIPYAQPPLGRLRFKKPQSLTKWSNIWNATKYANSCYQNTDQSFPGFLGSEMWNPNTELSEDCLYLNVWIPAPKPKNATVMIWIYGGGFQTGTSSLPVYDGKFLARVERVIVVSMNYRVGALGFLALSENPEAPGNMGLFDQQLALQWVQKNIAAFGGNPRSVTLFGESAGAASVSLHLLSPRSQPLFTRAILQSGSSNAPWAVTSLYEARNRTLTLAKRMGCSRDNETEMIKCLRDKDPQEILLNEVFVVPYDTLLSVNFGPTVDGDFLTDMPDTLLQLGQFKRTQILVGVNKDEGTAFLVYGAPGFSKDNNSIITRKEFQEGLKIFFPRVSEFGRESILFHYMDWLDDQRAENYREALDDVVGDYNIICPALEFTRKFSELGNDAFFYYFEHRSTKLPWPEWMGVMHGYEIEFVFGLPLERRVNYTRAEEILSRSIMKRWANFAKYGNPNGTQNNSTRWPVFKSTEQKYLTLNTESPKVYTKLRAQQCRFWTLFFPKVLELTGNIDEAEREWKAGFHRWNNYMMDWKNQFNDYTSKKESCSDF

[1] = MTT cytotoxicity test on HUVEC cell line; assay type: cell-based; details: human, HUVEC cells (healthy cell line)
Procedure: Cell culture studies were conducted using the previously mentioned method , and HUVEC (healthy cell line) was grown for this study. After the cells were grown, the maximum dose accepted as 100 μM drug concentration was applied to the cell line for all compounds, and cell viability was determined. , The results were illustrated in Table .
The cytotoxic effect of all compounds by MTT analysis was performed to determine the proliferation on the HUVEC cell line. The MTT [3-(4,5-dimethyl-2-thiazol)-2,5-diphenyl-2H-tetrazolium bromide] cytotoxicity assay was employed according to previous studies with minor modifications. −

Row | Compound | SI (selectivity index) = K I (AChE)/ K I (BChE) (AChE (from electric eel)) | Ki (AChE (from electric eel)) [nM] | IC50 (AChE (from electric eel)) [µM] | selectivity for AChE than for BChE (in words) (AChE (from electric eel)) | Ki (BChE (from equine serum)) [nM] | IC50 (BChE (from equine serum)) [µM] | viability at 24 h, 100 µM [1] [%]
1 | COc1ccc(C2=NN(c3nc(-c4cccc([N+](=O)[O-])c4)cs3)C(c3ccc(C)s3)C2)cc1OC (stereo not drawn) [Compound 3j, 2-[3-(3,4-Dimethoxyphenyl)-5-(5-methylthiophen-2-yl)-4,5-dihydro-1H-pyrazol-1-yl]-4-(3-nitrophenyl)thiazole] | 0.178 | 423 ± 23 | 4.03 | more significant selectivity | 2370 ± 114 | 4.92 | 102
2 | COc1ccc(C2=NN(c3nc(-c4ccc(C)cc4)cs3)C(c3ccc(C)s3)C2)cc1OC (stereo not drawn) [Compound 3b, 2-[3-(3,4-Dimethoxyphenyl)-5-(5-methylthiophen-2-yl)-4,5-dihydro-1H-pyrazol-1-yl]-4-(4-methylphenyl)thiazole] | 0.361 | 804 ± 62 | 4.01 | more significant selectivity | 2220 ± 132 | 4.15 | 133
3 | COc1ccc(C2=NN(c3nc(-c4ccc(C#N)cc4)cs3)C(c3ccc(C)s3)C2)cc1OC (stereo not drawn) [Compound 3g, 2-[3-(3,4-Dimethoxyphenyl)-5-(5-methylthiophen-2-yl)-4,5-dihydro-1H-pyrazol-1-yl]-4-(4-cyanophenyl)thiazole] | 0.057 | 45 ± 2 | 0.338 | highest selectivity for AChE; also recorded: more significant selectivity | 789 ± 56 | 2.09 | 94
4 | COc1ccc(-c2csc(N3N=C(c4ccc(OC)c(OC)c4)CC3c3ccc(C)s3)n2)cc1 (stereo not drawn) [Compound 3c, 2-[3-(3,4-Dimethoxyphenyl)-5-(5-methylthiophen-2-yl)-4,5-dihydro-1H-pyrazol-1-yl]-4-(4-methoxyphenyl)thiazole] | 1.016 | 1180 ± 83 | 4.81 | – | 1160 ± 62 | 3.07 | 97.2
5 | COc1ccc(C2=NN(c3nc(-c4ccc(Cl)cc4Cl)cs3)C(c3ccc(C)s3)C2)cc1OC (stereo not drawn) [Compound 3h, 2-[3-(3,4-Dimethoxyphenyl)-5-(5-methylthiophen-2-yl)-4,5-dihydro-1H-pyrazol-1-yl]-4-(2,4-dichlorophenyl)thiazole] | 0.655 | 1100 ± 58 | 5.46 | – | 1690 ± 82 | 4.99 | 138
6 | COc1ccc(C2=NN(c3nc(-c4ccc(F)cc4F)cs3)C(c3ccc(C)s3)C2)cc1OC (stereo not drawn) [Compound 3i, 2-[3-(3,4-Dimethoxyphenyl)-5-(5-methylthiophen-2-yl)-4,5-dihydro-1H-pyrazol-1-yl]-4-(2,4-difluorophenyl)thiazole] | 0.332 | 529 ± 34 | 6.42 | – | 1590 ± 78 | 7.37 | 86.4
7 | COc1ccc(C2=NN(c3nc(-c4ccc([N+](=O)[O-])cc4)cs3)C(c3ccc(C)s3)C2)cc1OC (stereo not drawn) [Compound 3f, 2-[3-(3,4-Dimethoxyphenyl)-5-(5-methylthiophen-2-yl)-4,5-dihydro-1H-pyrazol-1-yl]-4-(4-nitrophenyl)thiazole] | 0.039 | 57 ± 3 | 0.382 | highest selectivity for AChE; also recorded: more significant selectivity | 1460 ± 71 | 4.25 | 86
8 | COc1ccc(C2=NN(c3nc(-c4ccccc4)cs3)C(c3ccc(C)s3)C2)cc1OC (stereo not drawn) [Compound 3a, 2-[3-(3,4-Dimethoxyphenyl)-5-(5-methylthiophen-2-yl)-4,5-dihydro-1H-pyrazol-1-yl]-4-phenylthiazole] | 0.660 | 886 ± 54 | 2.85 | – | 1350 ± 83 | 4.3 | 99.2
9 | COc1ccc(C2=NN(c3nc(-c4ccc(Cl)cc4)cs3)C(c3ccc(C)s3)C2)cc1OC (stereo not drawn) [Compound 3d, 2-[3-(3,4-Dimethoxyphenyl)-5-(5-methylthiophen-2-yl)-4,5-dihydro-1H-pyrazol-1-yl]-4-(4-chlorophenyl)thiazole] | 0.074 | 121 ± 7 | 0.523 | more significant selectivity | 1640 ± 85 | 6.03 | 126
10 | COc1ccc(C2=NN(c3nc(-c4ccc(F)cc4)cs3)C(c3ccc(C)s3)C2)cc1OC (stereo not drawn) [Compound 3e, 2-[3-(3,4-Dimethoxyphenyl)-5-(5-methylthiophen-2-yl)-4,5-dihydro-1H-pyrazol-1-yl]-4-(4-fluorophenyl)thiazole] | 0.082 | 143 ± 84 | 0.385 | more significant selectivity | 1720 ± 150 | 3.32 | 118
